Test results as given in ChEMBL document CHEMBL1158340, “Organoiodine (III)-mediated synthesis of 3-aryl/heteroaryl-5,7-dimethyl-1,2,4-triazolo[4,3-c]pyrimidines as antibacterial agents” (2009).
In brackets after ≈: the same amount, converted by molar mass. Activity calls are given as the source filed them. No cut-off for these calls is given here.

How the values were obtained:
Format in all cases: functional
Pseudomonas putida [1] = experiment: Antibacterial activity against Pseudomonas putida MTCC 121 at 100 ug/mL by agar well diffusion method; details: read-out: DIZ
Escherichia coli [2] = experiment: Antibacterial activity against Escherichia coli MTCC 51 at 100 ug/mL by agar well diffusion method; details: read-out: DIZ
Pseudomonas putida [3] = experiment: Antibacterial activity against Pseudomonas putida MTCC 121 at 50 ug/mL by agar well diffusion method; details: read-out: DIZ
Escherichia coli [4] = experiment: Antibacterial activity against Escherichia coli MTCC 51 at 10 ug/mL by agar well diffusion method; details: for zone of inhibition at 10 µg/mL: read-out: DIZ
Pseudomonas putida [5] = experiment: Antibacterial activity against Pseudomonas putida MTCC 121 after 24 hrs; details: MTCC 121, 24 h
Escherichia coli [6] = experiment: Antibacterial activity against Escherichia coli MTCC 51 at 50 ug/mL by agar well diffusion method; details: for zone of inhibition at 50 µg/mL: read-out: DIZ
[7] = tested on: Geobacillus stearothermophilus; experiment: Antibacterial activity against Bacillus stearothermophilus MTCC 8508 at 10 ug/mL by agar well diffusion method; details: for zone of inhibition at 10 µg/mL: read-out: DIZ
Escherichia coli [8] = experiment: Antibacterial activity against Escherichia coli MTCC 51 after 24 hrs; details: MTCC 51, 24 h
Bacillus subtilis [9] = experiment: Antibacterial activity against Bacillus subtilis MTCC 8509 after 24 hrs; details: MTCC 8509, 24 h
[10] = tested on: Geobacillus stearothermophilus; experiment: Antibacterial activity against Bacillus stearothermophilus MTCC 8508 at 100 ug/mL by agar well diffusion method; details: read-out: DIZ
Bacillus subtilis [11] = experiment: Antibacterial activity against Bacillus subtilis MTCC 8509 at 50 ug/mL by agar well diffusion method; details: for zone of inhibition at 50 µg/mL: read-out: DIZ
[12] = tested on: Geobacillus stearothermophilus; experiment: Antibacterial activity against Bacillus stearothermophilus MTCC 8508 at 50 ug/mL by agar well diffusion method; details: for zone of inhibition at 50 µg/mL: read-out: DIZ
[13] = tested on: Geobacillus stearothermophilus; experiment: Antibacterial activity against Bacillus stearothermophilus MTCC 8508 after 24 hrs; details: MTCC 8508, 24 h
Bacillus subtilis [14] = experiment: Antibacterial activity against Bacillus subtilis MTCC 8509 at 100 ug/mL by agar well diffusion method; details: read-out: DIZ
Pseudomonas putida [15] = experiment: Antibacterial activity against Pseudomonas putida MTCC 121 at 10 ug/mL by agar well diffusion method; details: for zone of inhibition at 10 µg/mL: read-out: DIZ
Bacillus subtilis [16] = experiment: Antibacterial activity against Bacillus subtilis MTCC 8509 at 10 ug/mL by agar well diffusion method; details: for zone of inhibition at 10 µg/mL: read-out: DIZ

SMILES | MIC (Pseudomonas putida [5]) [µg/mL] | MIC (Escherichia coli [8]) [µg/mL] | MIC (Bacillus subtilis [9]) [µg/mL] | MIC [13] [µg/mL] | zone of inhibition at 100 µg/mL (Pseudomonas putida [1]) [mm] | zone of inhibition at 100 µg/mL (Escherichia coli [2]) [mm] | zone of inhibition at 50 µg/mL (Pseudomonas putida [3]) [mm] | zone of inhibition at 50 µg/mL (Escherichia coli [6]) [mm] | zone of inhibition at 100 µg/mL [10] [mm] | zone of inhibition at 50 µg/mL (Bacillus subtilis [11]) [mm] | zone of inhibition at 50 µg/mL [12] [mm] | zone of inhibition at 100 µg/mL (Bacillus subtilis [14]) [mm] | Activity (Pseudomonas putida [15]) | Activity (Bacillus subtilis [16]) | zone of inhibition at 10 µg/mL (Escherichia coli [4]) [mm] | zone of inhibition at 10 µg/mL [7] [mm] | zone of inhibition at 10 µg/mL (Pseudomonas putida [15]) [mm] | zone of inhibition at 10 µg/mL (Bacillus subtilis [16]) [mm] | further results
Cc1cc2nnc(-c3ccc([N+](=O)[O-])cc3)n2c(C)n1 | 125 (≈ 464 µM) | 250 (≈ 928 µM) | 250 (≈ 928 µM) | > 250 | 19.7 | 13.7 | 12.3 | 8.33 | 16.7 | 9.66 | 10.3 | 14.3 | inactive | inactive |  |  |  |  | Activity (Escherichia coli [4]): inactive; Activity [7]: inactive
COc1ccc(-c2nnc3cc(C)nc(C)n23)cc1 | 16 (≈ 62.9 µM) | 16 (≈ 62.9 µM) | 8 (≈ 31.5 µM) | 16 (≈ 62.9 µM) | 40.7 | 40.7 | 20.3 | 21.3 | 41.3 | 39.7 | 20.7 | 59.7 |  |  | 12.3 | 12.3 | 11.7 | 27.3 | 
CN[C@@H]1[C@H](O[C@H]2[C@H](O[C@H]3[C@H](O)[C@@H](O)[C@H](N=C(N)N)[C@@H](O)[C@@H]3N=C(N)N)O[C@@H](C)[C@]2(O)C=O)O[C@@H](CO)[C@H](O)[C@H]1O [STREPTOMYCIN] | 4 (≈ 6.88 µM) | 4 (≈ 6.88 µM) | 2 (≈ 3.44 µM) | 2 (≈ 3.44 µM) | 72.2 | 69.4 | 48.2 | 49.4 | 67.2 | 57.4 | 49.2 | 73.2 |  |  | 26.4 | 33.2 | 38.2 | 36.4 | 
Cc1cc2nnc(-c3ccc(F)cc3)n2c(C)n1 | 32 (≈ 132 µM) | 32 (≈ 132 µM) | 16 (≈ 66 µM) | 16 (≈ 66 µM) | 23.2 | 26.4 | 15.3 | 14.3 | 41.8 | 22.3 | 23.4 | 41.7 |  |  | 11.3 | 10.1 | 9.67 | 13.7 | 
COc1ccc(OC)c(-c2nnc3cc(C)nc(C)n23)c1 | > 250 | 125 (≈ 440 µM) | > 250 | > 250 | 13.7 | 19.3 | 9.66 | 10.7 | 13.7 |  | 8.33 | 11.3 | inactive | inactive |  |  |  |  | Activity (Escherichia coli [4]): inactive; Activity [7]: inactive; Activity (Bacillus subtilis [11]): inactive
Cc1cc2nnc(-c3cccs3)n2c(C)n1 | > 250 | 64 (≈ 278 µM) | > 250 | 64 (≈ 278 µM) | 12.3 | 26.3 | 8.33 | 18.7 | 25.7 | 8.34 | 16.7 | 13.7 | inactive | inactive | 10.3 | 9.74 |  |  | 
Cc1cc2nnc(-c3ccc(Cl)cc3)n2c(C)n1 | > 250 | > 250 | > 250 | 125 (≈ 483 µM) | 14.6 | 10.7 | 8.33 |  | 18.7 |  | 11.8 | 11.3 | inactive | inactive |  |  |  |  | Activity (Escherichia coli [4]): inactive; Activity (Escherichia coli [6]): inactive; Activity [7]: inactive; Activity (Bacillus subtilis [11]): inactive
O=C(N[C@H](CO)[C@H](O)c1ccc([N+](=O)[O-])cc1)C(Cl)Cl [CHLORAMPHENICOL] | 2 (≈ 6.19 µM) | 4 (≈ 12.4 µM) | 2 (≈ 6.19 µM) | 2 (≈ 6.19 µM) | 71.2 | 75.4 | 53.4 | 50.4 | 77.2 | 57.2 | 53.2 | 74.2 |  |  | 30.3 | 35.3 | 29.3 | 36.3 | 
Cc1cc2nnc(-c3ccccc3)n2c(C)n1 | > 250 | > 250 | > 250 | > 250 | 12.7 | 11.3 | 8.33 |  | 10.7 | 8.34 |  | 13.3 | inactive | inactive |  |  |  |  | Activity (Escherichia coli [4]): inactive; Activity (Escherichia coli [6]): inactive; Activity [7]: inactive; Activity [12]: inactive

The next lines start with results.

MIC (Pseudomonas putida [5]) [µg/mL] | MIC (Escherichia coli [8]) [µg/mL] | MIC (Bacillus subtilis [9]) [µg/mL] | MIC [13] [µg/mL] | SMILES | zone of inhibition at 100 µg/mL (Pseudomonas putida [1]) [mm] | zone of inhibition at 100 µg/mL (Escherichia coli [2]) [mm] | zone of inhibition at 50 µg/mL (Pseudomonas putida [3]) [mm] | zone of inhibition at 50 µg/mL (Escherichia coli [6]) [mm] | zone of inhibition at 100 µg/mL [10] [mm] | zone of inhibition at 50 µg/mL (Bacillus subtilis [11]) [mm] | zone of inhibition at 50 µg/mL [12] [mm] | zone of inhibition at 100 µg/mL (Bacillus subtilis [14]) [mm] | Activity (Pseudomonas putida [15]) | Activity (Bacillus subtilis [16]) | zone of inhibition at 10 µg/mL (Escherichia coli [4]) [mm] | zone of inhibition at 10 µg/mL [7] [mm] | zone of inhibition at 10 µg/mL (Pseudomonas putida [15]) [mm] | zone of inhibition at 10 µg/mL (Bacillus subtilis [16]) [mm] | further results
2 (≈ 8.88 µM) | 8 (≈ 35.5 µM) | 4 (≈ 17.8 µM) | 8 (≈ 35.5 µM) | Cc1cc2nnc(-c3cccnc3)n2c(C)n1 | 69.7 | 57.3 | 59.3 | 39.3 | 56.3 | 46.3 | 39.7 | 65.7 |  |  | 25.7 | 25.3 | 36.7 | 29.3 | 
2 (≈ 7.4 µM) | 4 (≈ 14.8 µM) | 8 (≈ 29.6 µM) | 4 (≈ 14.8 µM) | COc1cc(O)ccc1-c1nnc2cc(C)nc(C)n12 | 72.7 | 66.7 | 49.3 | 46.3 | 66.3 | 42.7 | 46.7 | 61.7 |  |  | 29.3 | 30.7 | 32.7 | 27.3 | 
8 (≈ 33.6 µM) | 16 (≈ 67.1 µM) | 16 (≈ 67.1 µM) | 32 (≈ 134 µM) | Cc1ccc(-c2nnc3cc(C)nc(C)n23)cc1 | 59.7 | 40.2 | 40.3 | 22.2 | 30.3 | 21.3 | 19.7 | 42.1 |  |  | 11.7 | 9.74 | 26.7 | 12.3 | 
4 (≈ 13.2 µM) | 16 (≈ 52.8 µM) | 8 (≈ 26.4 µM) | 8 (≈ 26.4 µM) | Cc1cc2nnc(-c3ccc(Br)cc3)n2c(C)n1 | 66.7 | 47.3 | 48.7 | 31.7 | 60.7 | 40.7 | 41.7 | 59.3 |  |  | 23.3 | 26.7 | 28.3 | 27.7 | 
4 (≈ 13.6 µM) | 1 (≈ 3.41 µM) | 4 (≈ 13.6 µM) | 4 (≈ 13.6 µM) | Cc1cc2nnc(-c3ccc(Cl)cc3Cl)n2c(C)n1 | 67.7 | 75.3 | 49.7 | 63.7 | 66.3 | 47.7 | 48.3 | 67.3 |  |  | 37.3 | 29.7 | 29.3 | 30.7 | 
